Laboratory results reported in patent EP0623605A2, “Substituted piperazines as antiretroviral medicaments” (BAYER AG, priority 1993, dated 1994).

Target: T1, HIV-Protease (Human immunodeficiency virus type 1 group M subtype B, UniProt P04585)
T1 construct: Gereinigte HIV-Protease wurde mit synthetischem Peptid
Assay: HIV-specific protease enzyme test (purified HIV protease incubated with synthetic Gag cleavage-site peptide, cleavage products analysed by RP-HPLC)
Assay type: biochemical
Details: for inhibition at 240 µg/mL: read-out: % Inhibition bei 240 µg/ml; for IC50: substance concentration causing 50% inhibition of protease activity, read-out: IC₅₀
Source text: Darüber hinaus wurde überraschend gefunden, daß die Verbindungen der allgemeinen Formel (I) eine außerordentlich starke Wirkung gegen Retroviren besitzen. Dies wird mit einem HIV-spezifischen Protease-Enzymtest belegt.
Die Ergebnisse der unten aufgeführten Beispiele wurden nach dem in den folgenden Literaturangaben [vgl. Hansen, J., Billich, S., Schulze, T., Sukrow, S. and Mölling, K. (1988), EMBO Journal, Vol, 7, No. 6, pp. 1785 - 1791] beschriebenen HIV-Testsystem ermittelt: Gereinigte HIV-Protease wurde mit synthetischem Peptid, das eine Schnittstelle im Gag-Precursor-Protein imitiert und eine in vivo-Spaltstelle der HIV-Protease darstellt, inkubiert Die entstandenen Spaltprodukte des synthetischen Peptids wurden über Reverse Phase High Performance Liquid Chromatography (RP-HPLC) analysiert. Die angegebenen IC₅₀-Werte beziehen sich auf die Substanzkonzentration, die unter den oben aufgeführten Testbedingungen eine 50%ige Hemmung der Protease-Aktivität bewirkt. Tabelle 1

## CC(CN1CCN(CCCC(c2ccc(F)cc2)c2ccc(F)cc2)CC1)Oc1ccc(F)cc1F (racemic) [Beispiel 10, 1-[4,4-Bis-(4-fluorphenyl)butyl]-4-[(R/S)-2-(2,4-difluorphenoxy)propyl]piperazin]
  inhibition at 240 µg/mL: 77%
  IC50: 4.8 µM

## Cc1cccc(OC(C)CN2CCN(CCCC(c3ccc(F)cc3)c3ccc(F)cc3)CC2)c1C (racemic) [Beispiel 37]
  inhibition at 240 µg/mL: 61%

## CC(CN1CCN(CCCC(c2ccc(F)cc2)c2ccc(F)cc2)CC1)Oc1ccc(C(F)(F)F)cc1 (racemic) [Beispiel 40]
  inhibition at 240 µg/mL: 84%

## CN(C)c1ccccc1OCCN1CCN(CCCC(c2ccc(F)cc2)c2ccc(F)cc2)CC1 [Beispiel 3, 1-[4,4-Bis-(4-fluorphenyl)butyl]-4-[2-(2-N,N-dimethylaminophenoxy)ethyl]piperazin]
  inhibition at 240 µg/mL: 76%

## C[C@H]1CN(CCOc2ccc(F)cc2F)CCN1CCCC(c1ccc(F)cc1)c1ccc(F)cc1 [Beispiel 13, (S)-1-[4,4-Bis-(4-fluorphenyl)butyl]-2-methyl-4-[2-(2,4-difluorphenoxy)ethyl]piperazin]
  inhibition at 240 µg/mL: 91%
  IC50: 0.48 µM

## C[C@H]1CN(CCCC(c2ccc(F)cc2)c2ccc(F)cc2)CCN1CCOc1ccc(F)cc1F [Beispiel 14, (S)-4-[4,4-Bis-(4-fluorphenyl)butyl]-2-methyl-1-[2-(2,4-difluorphenoxy)ethyl]piperazin]
  inhibition at 240 µg/mL: 99%
  IC50: 1.1 µM

## Fc1ccc(C(CCCN2CCN(CCOc3ccc(F)cc3F)CC2)c2ccc(F)cc2)cc1 [Beispiel 15]
  inhibition at 240 µg/mL: 92%
  IC50: 0.4 µM

## Cc1cccc(OCCN2CCN(CCCC(c3ccc(F)cc3)c3ccc(F)cc3)CC2)c1C [Beispiel 16]
  inhibition at 240 µg/mL: 59%

## Cc1cc(Cl)ccc1OCCN1CCN(CCCC(c2ccc(F)cc2)c2ccc(F)cc2)CC1 [Beispiel 17]
  inhibition at 240 µg/mL: 86%
  IC50: 0.5 µM

## COc1cc(C)ccc1OCCN1CCN(CCCC(c2ccc(F)cc2)c2ccc(F)cc2)CC1 [Beispiel 22]
  inhibition at 240 µg/mL: 81%

## Fc1ccc(C(CCCN2CCN(CCOc3cccc4c3CCCC4)CC2)c2ccc(F)cc2)cc1 [Beispiel 26]
  inhibition at 240 µg/mL: 97%
  IC50: 1 µM

## COc1cccc2c1OC(CN1CCN(CCCC(c3ccc(F)cc3)c3ccc(F)cc3)CC1)CC2 (centres unmarked) [Beispiel 27]
  inhibition at 240 µg/mL: 78%

## Cc1ccc(N(C)C)cc1OCCN1CCN(CCCC(c2ccc(F)cc2)c2ccc(F)cc2)CC1 [Beispiel 30]
  inhibition at 240 µg/mL: 81%

## Cc1ccc(N)cc1OCCN1CCN(CCCC(c2ccc(F)cc2)c2ccc(F)cc2)CC1 [Beispiel 32]
  inhibition at 240 µg/mL: 67%

## COC(=O)c1ccc(OCCN2CCN(CCCC(c3ccc(F)cc3)c3ccc(F)cc3)CC2)c(N(C)C(C)=O)c1 [Beispiel 33]
  inhibition at 240 µg/mL: 56%

## CCN(C)c1cc(CO)ccc1OCCN1CCN(CCCC(c2ccc(F)cc2)c2ccc(F)cc2)CC1 [Beispiel 34]
  inhibition at 240 µg/mL: 99%
  IC50: 0.17 µM

## Cc1cc(Cl)ccc1OC(C)CN1CCN(CCCC(c2ccc(F)cc2)c2ccc(F)cc2)CC1 (centres unmarked) [Beispiel 39]
  inhibition at 240 µg/mL: 77%
  IC50: 1 µM

## CC(CN1CCN(CCCC(c2ccc(F)cc2)c2ccc(F)cc2)CC1)Oc1cccc2c1CCCC2 (centres unmarked) [Beispiel 41]
  inhibition at 240 µg/mL: 95%
  IC50: 2.1 µM

## COc1cccc2c1OC(CN1CCN(CCCC(c3ccc(F)cc3)c3ccc(F)cc3)C[C@@H]1C)CC2 (some centres unmarked) [Beispiel 44]
  inhibition at 240 µg/mL: 99%
  IC50: 26 µM
